Values joined by “and” are separate entries in the source; they are usually repeats but may differ in a detail not shown here. Equal values may be shown once.
How the values were obtained:
Assay in all cases: EDTA salt dilution test, MIC/MBC
Format in all cases: cell-based
E. coli = conditions: three entries; for MBC, minimum concentration required to kill an entire population: Exhibit A1; for MIC, minimum concentration required to inhibit growth: Exhibit A2
Experimental: (§1) Protocol one: Broth dilutions:
(§2) Inoculate a 25 ml nutrient broth (Oxoid No2) in a sterile universal container with one of the following organisms; Pseudomonas aeruginosa, Proteus Mirabilis, E. coli, Klebsiella pneumoniae, Staph aureus, Coagulase negative staphylococci, Enterococcus faecalis or MRSA.
(§3) Incubate the broth at 37° C. overnight.
(§4) To make these concentrations put the EDTA needed for 10 mLs in only 9 mLs of broth in sterile universal containers, as this will be diluted further when the organisms are added.
(§5) Dilute the overnight broth cultures to 10^7 organisms/mL using more sterile nutrient broth.
(§6) Add 1 mL of this diluent to each of the EDTA series broths. This gives a final concentration of 10^6 organism/mL in the EDTA broths.
(§7) Incubate for 18 hours at 37° C.
(§8) Next day visually read the MIC's by observing the turbidity of the broths.
(§9) Plate out 1 uL of each dilution onto fresh blood agar plate and spread using a sterile plastic spreader.
(§10) Incubate overnight at 37° C.
(§11) Next day read the MBC's by performing colony counts.

Ent. faecalis = conditions: for MBC, minimum concentration required to kill an entire population: Exhibit A1; for MIC, minimum concentration required to inhibit growth: Exhibit A2
Experimental: as §1, §2, §3, §4, §5, §6, §7, §8, §9, §10, §11

Kleb. pnemoniae = conditions: two entries; for MBC, minimum concentration required to kill an entire population: Exhibit A1; for MIC, minimum concentration required to inhibit growth: Exhibit A2
Experimental: as §1, §2, §3, §4, §5, §6, §7, §8, §9, §10, §11

MRSA = conditions: five entries; for MBC, minimum concentration required to kill an entire population: Exhibit A1; for MIC, minimum concentration required to inhibit growth: Exhibit A2
Experimental: as §1, §2, §3, §4, §5, §6, §7, §8, §9, §10, §11

Proteus mirabilis = conditions: two entries; for MBC, minimum concentration required to kill an entire population: Exhibit A1; for MIC, minimum concentration required to inhibit growth: Exhibit A2
Experimental: as §1, §2, §3, §4, §5, §6, §7, §8, §9, §10, §11

Pseudomonas aeruginosa = conditions: two entries; for MBC, minimum concentration required to kill an entire population: Exhibit A1; for MIC, minimum concentration required to inhibit growth: Exhibit A2
Experimental: as §1, §2, §3, §4, §5, §6, §7, §8, §9, §10, §11

Pseudomonas sp. = conditions: for MBC, minimum concentration required to kill an entire population: Exhibit A1; for MIC, minimum concentration required to inhibit growth: Exhibit A2
Experimental: as §1, §2, §3, §4, §5, §6, §7, §8, §9, §10, §11

S. aureus = conditions: five entries; for MBC, minimum concentration required to kill an entire population: Exhibit A1; for MIC, minimum concentration required to inhibit growth: Exhibit A2
Experimental: as §1, §2, §3, §4, §5, §6, §7, §8, §9, §10, §11

S. capitis = conditions: two entries; for MBC, minimum concentration required to kill an entire population: Exhibit A1
Experimental: as §1, §2, §3, §4, §5, §6, §7, §8, §9, §10, §11

S. epidermidis = conditions: two entries; for MBC, minimum concentration required to kill an entire population: Exhibit A1; for MIC, minimum concentration required to inhibit growth: Exhibit A2
Experimental: as §1, §2, §3, §4, §5, §6, §7, §8, §9, §10, §11

S. lentus = conditions: for MBC, minimum concentration required to kill an entire population: Exhibit A1; for MIC, minimum concentration required to inhibit growth: Exhibit A2
Experimental: as §1, §2, §3, §4, §5, §6, §7, §8, §9, §10, §11

S. simulans = conditions: for MBC, minimum concentration required to kill an entire population: Exhibit A1; for MIC, minimum concentration required to inhibit growth: Exhibit A2
Experimental: as §1, §2, §3, §4, §5, §6, §7, §8, §9, §10, §11

S. xylosus = conditions: for MBC, minimum concentration required to kill an entire population: Exhibit A1; for MIC, minimum concentration required to inhibit growth: Exhibit A2
Experimental: as §1, §2, §3, §4, §5, §6, §7, §8, §9, §10, §11

VRE = conditions: two entries; for MBC, minimum concentration required to kill an entire population: Exhibit A1
Experimental: as §1, §2, §3, §4, §5, §6, §7, §8, §9, §10, §11

Ent. faeculm = conditions: for MIC, minimum concentration required to inhibit growth: Ent. faecuim, Exhibit A2; for MBC, minimum concentration required to kill an entire population: Ent. faeculm, Exhibit A1
Kleb. oxytoca = conditions: for MBC, minimum concentration required to kill an entire population: Exhibit A1; for MIC, minimum concentration required to inhibit growth: Exhibit A2
Kleb. ornitholytica = conditions: for MBC, minimum concentration required to kill an entire population: Exhibit A1; for MIC, minimum concentration required to inhibit growth: Exhibit A2
Ent. cloacae = conditions: three entries; for MBC, minimum concentration required to kill an entire population: Exhibit A1; for MIC, minimum concentration required to inhibit growth: Exhibit A2
Steno. maltophilia = conditions: for MBC, minimum concentration required to kill an entire population: Exhibit A1; for MIC, minimum concentration required to inhibit growth: Exhibit A2
Cornyeform amycolatum = conditions: for MBC, minimum concentration required to kill an entire population: Exhibit A1; for MIC, minimum concentration required to inhibit growth: Exhibit A2
Coryneform strait/amy = conditions: for MBC, minimum concentration required to kill an entire population: Exhibit A1; for MIC, minimum concentration required to inhibit growth: Exhibit A2
Acinetobacter baumanii = conditions: two entries, Exhibit A1
Proteus vulgaris = conditions: for MBC, minimum concentration required to kill an entire population: Exhibit A1; for MIC, minimum concentration required to inhibit growth: Exhibit A2

O=C([O-])CN(CCN(CC(=O)[O-])CC(=O)[O-])CC(=O)[O-].[Fe+3].[Na+] [Ferric-sodium salt EDTA]
>15 mg/mL and 15 mg/mL: MIC, minimum concentration required to inhibit growth (Kleb. pnemoniae)
>20 mg/mL: MIC, minimum concentration required to inhibit growth (MRSA) | MIC, minimum concentration required to inhibit growth (S. aureus) | MIC, minimum concentration required to inhibit growth (S. capitis; Exhibit A2) | MIC, minimum concentration required to inhibit growth (S. epidermidis) | MIC, minimum concentration required to inhibit growth (S. lentus) | MIC, minimum concentration required to inhibit growth (S. simulans) | MIC, minimum concentration required to inhibit growth (S. xylosus)
>15 mg/mL: MBC, minimum concentration required to kill an entire population (E. coli) | MBC, minimum concentration required to kill an entire population (Kleb. pnemoniae) | MBC, minimum concentration required to kill an entire population (Proteus mirabilis) | MIC, minimum concentration required to inhibit growth (Proteus mirabilis) | MBC, minimum concentration required to kill an entire population (Pseudomonas aeruginosa) | MBC, minimum concentration required to kill an entire population (Pseudomonas sp.) | MBC, minimum concentration required to kill an entire population (Kleb. oxytoca) | MIC, minimum concentration required to inhibit growth (Kleb. oxytoca) | MBC, minimum concentration required to kill an entire population (Kleb. ornitholytica) | MBC, minimum concentration required to kill an entire population (Ent. cloacae) | MIC, minimum concentration required to inhibit growth (Ent. cloacae) | MBC, minimum concentration required to kill an entire population (Steno. maltophilia) | MBC, minimum concentration required to kill an entire population (Proteus vulgaris) | MIC, minimum concentration required to inhibit growth (Proteus vulgaris)
10 mg/mL and >15 mg/mL: MBC, minimum concentration required to kill an entire population (Acinetobacter baumanii)
>30 mg/mL: MBC, minimum concentration required to kill an entire population (Ent. faecalis) | MBC, minimum concentration required to kill an entire population (MRSA) | MBC, minimum concentration required to kill an entire population (S. aureus) | MBC, minimum concentration required to kill an entire population (S. capitis) | MBC, minimum concentration required to kill an entire population (S. epidermidis) | MBC, minimum concentration required to kill an entire population (S. lentus) | MBC, minimum concentration required to kill an entire population (S. simulans) | MBC, minimum concentration required to kill an entire population (S. xylosus) | MBC, minimum concentration required to kill an entire population (VRE) | MBC, minimum concentration required to kill an entire population (Ent. faeculm)
15 mg/mL: MIC, minimum concentration required to inhibit growth (Pseudomonas aeruginosa) | MIC, minimum concentration required to inhibit growth (Pseudomonas sp.) | MIC, minimum concentration required to inhibit growth (Kleb. ornitholytica)
4 mg/mL: MIC, minimum concentration required to inhibit growth (Ent. faecalis) | MIC, minimum concentration required to inhibit growth (Ent. faeculm)
15 mg/mL and >15 mg/mL: MIC, minimum concentration required to inhibit growth (E. coli)
10 mg/mL: MIC, minimum concentration required to inhibit growth (Steno. maltophilia) | MBC, minimum concentration required to kill an entire population (Cornyeform amycolatum) | MIC, minimum concentration required to inhibit growth (Cornyeform amycolatum) | MBC, minimum concentration required to kill an entire population (Coryneform strait/amy) | MIC, minimum concentration required to inhibit growth (Coryneform strait/amy)

O=C([O-])CN(CCN(CC(=O)[O-])CC(=O)[O-])CC(=O)[O-].[Mg+2].[Na+].[Na+] [Magnesium disodium EDTA]
2 mg/mL: MIC, minimum concentration required to inhibit growth (S. xylosus)
<0.5 mg/mL: MIC, minimum concentration required to inhibit growth (Cornyeform amycolatum) | MIC, minimum concentration required to inhibit growth (Coryneform strait/amy)
4 mg/mL: MBC, minimum concentration required to kill an entire population (Cornyeform amycolatum) | MBC, minimum concentration required to kill an entire population (Coryneform strait/amy)
25 mg/mL and >30 mg/mL: MIC, minimum concentration required to inhibit growth (VRE; Exhibit A2)
.30 mg/mL: MBC, minimum concentration required to kill an entire population (Proteus vulgaris)
>30 mg/mL: MBC, minimum concentration required to kill an entire population (E. coli) | MIC, minimum concentration required to inhibit growth (E. coli) | MBC, minimum concentration required to kill an entire population (Ent. faecalis) | MIC, minimum concentration required to inhibit growth (Ent. faecalis) | MBC, minimum concentration required to kill an entire population (Kleb. pnemoniae) | MIC, minimum concentration required to inhibit growth (Kleb. pnemoniae) | MBC, minimum concentration required to kill an entire population (MRSA) | MIC, minimum concentration required to inhibit growth (MRSA) | MBC, minimum concentration required to kill an entire population (Proteus mirabilis) | MIC, minimum concentration required to inhibit growth (Proteus mirabilis) | MBC, minimum concentration required to kill an entire population (Pseudomonas aeruginosa) | MIC, minimum concentration required to inhibit growth (Pseudomonas aeruginosa) | MBC, minimum concentration required to kill an entire population (Pseudomonas sp.) | MIC, minimum concentration required to inhibit growth (Pseudomonas sp.) | MBC, minimum concentration required to kill an entire population (S. aureus) | MIC, minimum concentration required to inhibit growth (S. aureus) | MBC, minimum concentration required to kill an entire population (S. capitis) | MBC, minimum concentration required to kill an entire population (S. lentus) | MBC, minimum concentration required to kill an entire population (S. simulans) | MBC, minimum concentration required to kill an entire population (S. xylosus) | MBC, minimum concentration required to kill an entire population (VRE) | MBC, minimum concentration required to kill an entire population (Ent. faeculm) | MBC, minimum concentration required to kill an entire population (Kleb. oxytoca) | MIC, minimum concentration required to inhibit growth (Kleb. oxytoca) | MBC, minimum concentration required to kill an entire population (Kleb. ornitholytica) | MIC, minimum concentration required to inhibit growth (Kleb. ornitholytica) | MBC, minimum concentration required to kill an entire population (Ent. cloacae) | MIC, minimum concentration required to inhibit growth (Ent. cloacae) | MBC, minimum concentration required to kill an entire population (Steno. maltophilia) | MIC, minimum concentration required to inhibit growth (Steno. maltophilia) | MIC, minimum concentration required to inhibit growth (Proteus vulgaris)
30 mg/mL: MBC, minimum concentration required to kill an entire population (S. epidermidis)
6 mg/mL: MIC, minimum concentration required to inhibit growth (S. epidermidis) | MIC, minimum concentration required to inhibit growth (S. lentus)
1.5 mg/mL: MIC, minimum concentration required to inhibit growth (S. simulans) | MIC, minimum concentration required to inhibit growth (Ent. faeculm)

Source: US20100316529A1, “Anti-Microbial Systems and Methods” (priority 2001, published 2010)
